The results in this text go back to paper PMC8074792, “An ω-3, but Not an ω-6 Polyunsaturated Fatty Acid Decreases Membrane Dipole Potential and Stimulates Endo-Lysosomal Escape of Penetratin” (Frontiers in Cell and Developmental Biology, 2021).

Common to all, as to type: cell-based, human
Series [1] deals with JY cells. The series is described as follows: Membrane hydration, PY3174 generalized polarization, confocal microscopy. Particulars: 200 μM sterol 1 h or 50 μM fatty acid 48 h, efficacy order 6KC > cholesterol ≥ 7DHC, effects of 7DHC and SA not statistically significant. As for the experimental part: (§1) For these measurements, cells were labeled with 10 μM PY3174 for 20 min at room temperature. […] During processing, segmentation of images into membrane and non-membrane pixels was carried out with the manually seeded watershed algorithm using a custom-written MATLAB program as described previously ([Kovacs et al., 2017]). The average value of general polarization correlating with the degree of membrane compactness ([[…] et al., 2013]) was calculated from the data of cell membrane pixels after background subtraction using […]

For series [2], the system named is THP-1 cells. Described as above. The conditions noted are these: 200 μM sterol 1 h or 50 μM fatty acid 48 h, efficacy order 6KC > cholesterol ≥ 7DHC, all statistically significant. On the procedure: as §1
Series [3] deals with JY cells. The series is described as follows: Membrane dipole potential, di-8-ANEPPS excitation ratio, spectrofluorometry. On the procedure:
(§2) The human acute monocytic leukemia-derived cell line THP-1 and the human Epstein-Barr virus (EBV) transformed lymphoblastoid cell line JY were obtained from the American Type Culture Collection (Manassas, VA, United States) and cultivated according to their specifications. […] As controls, cells were treated with the corresponding amounts of native MβCD complexes not containing sterols. To study the effects of fatty acids, cells were incubated for 48 h in medium supplemented with saturated stearic acid (SA, Sigma Aldrich), ω-3 polyunsaturated α-linolenic acid (ALA, Sigma Aldrich) or ω-6 polyunsaturated γ-linolenic acid (GLA, Sigma Aldrich) at various concentrations ranging from 12.5 to 50 μM. […] After washing, cells were kept on ice and samples were subsequently warmed to 37°C right before measurements carried out with a Fluorolog-3 spectrofluorometer (Horiba Jobin Yvon, Edison, NJ, United States). During measurements, the cuvette holder was kept at 37°C using a circulating water bath. Excitation spectra were recorded between 380 and 550 nm with the detected emission wavelength set to 660 nm in order to minimize effects of possible changes in membrane fluidity ([Clarke and Kane, 1997]). The ratio of fluorescence intensities integrated between excitation wavelengths 410–440 nm and 490–520 nm was calculated for each sample, which positively correlates with the magnitude of DP ([Clarke and Kane, 1997]; [Kovacs et al., 2017]; [Batta et al., 2020]).

The subject of series [4] is THP-1 cells. Described as above. As for the experimental part:
as §2

Series [5] has as its system JY cells. Put plainly: Penetratin uptake and endo-lysosomal escape, time-correlated flow cytometry. Particulars: 37°C. An excerpt: (§3) Penetratin ([…]-amide, molecular weight 2245.75 g/mol) was synthesized manually on TentaGel R RAM (Rapp Polymere, Tübingen, Germany), a low crosslinked polystyrene PEG copolymer resin by the solid-phase method of Merrifield with standard Fmoc chemistry, as described in detail in our recent study ([Batta et al., 2020]). After coupling the last arginine, one half of the penetratin was reacted with AFDye532 N-hydroxysuccinimide ester (molecular weight 723.77 g/mol, Fluoroprobes, Scottsdale, AZ, United States), while the other half with 5(6)-carboxynaphthofluorescein N-succinimidyl ester (molecular weight 573.51 g/mol, Darmstadt, Germany). Completion of the coupling was assessed by Kaiser test, which was followed by deprotection and release from the resin. After filtration and precipitation with cold diethyl ether, the crude products were purified by preparative reversed-phase HPLC (JASCO, Victoria, BC, Canada) on a C18 column and lyophilized. The purity of the products (>95%) was assessed by reversed-phase HPLC (JASCO) equipped with an analytical C18 column. […] These values well correlated with the predicted masses of the labeled peptides (2983.59 and 2833.33, respectively).
(§4) Total cellular penetratin uptake and endo-lysosomal escape was determined as described previously ([Batta et al., 2020]). Briefly, control THP-1 or JY cells and those treated with 50 μM ALA, GLA or SA for 48 h at 37°C were incubated in the continuous presence of 5 μM AFDye532-penetratin, 5 μM NF-penetratin and 0.25 μg/ml DAPI at 37°C in the thermostated sample holder of a FACS Aria III flow cytometer. The fluorescence intensity of DAPI was measured using an excitation at 405 nm and an emission filter 450/20 nm. AFDye532 and NF were excited at 488 and 561 nm, respectively, and their fluorescence was determined using emission filters 530/30 and 670/14 nm, respectively. Measurements started immediately after addition of DAPI and penetratin and continued for 20 min at 37°C. Experimental data were analyzed first in FCS Express. Time-correlated fluorescence intensity values of DAPI-negative living cells were exported after spectral compensation and the moving averages of samples were calculated with a window size of 10 s. […] During analysis, fluorescence intensity values were first normalized to the average intensity in the first time window, which was followed by calculation of the fluorescence ratio from the normalized values.

In series [6] the test system is THP-1 cells. Described as above. Particulars: 37°C.
Text: as §3, §4

In series [7] the test system is JY cells. The series is described as follows: Membrane fluidity, TMA-DPH fluorescence anisotropy. Particulars: 200 μM sterol 1 h or 50 μM fatty acid 48 h, 37°C, n = 6, vs control. On the procedure:
(§5) 4′-(trimethylammonio)-diphenylhexatriene (TMA-DPH) was purchased from Sigma-Aldrich, dissolved in tetrahydrofuran and used for determination of membrane fluidity as described previously ([Batta et al., 2018]). […] Fluorescence intensities were measured without washing using a Fluorolog-3 spectrofluorometer (Horiba Jobin Yvon, Edison, NJ, United States) with the temperature of the cuvette holder adjusted to 37°C by a circulating water bath. The fluorescence anisotropy (r) of TMA-DPH was determined in the L-format after excitation at 352 nm and measurement of fluorescence intensities at 430 nm according to the formula: […]
On the technique in general: Fluorescence polarisation rises when a labelled molecule tumbles more slowly, as on binding a larger partner.

Series [8] has as its system THP-1 cells. The series is described as follows: Membrane fluidity, TMA-DPH fluorescence anisotropy. The conditions noted are these: 200 μM sterol 1 h or 50 μM fatty acid 48 h, 37°C, n = 6, vs control. On the procedure:
as §5

Series [9] concerns JY cells. The series is described as follows: Membrane dipole potential, F66 emission ratio, flow cytometry. The conditions noted are these: n = 5. On the procedure: (§6) The human acute monocytic leukemia-derived cell line THP-1 and the human Epstein-Barr virus (EBV) transformed lymphoblastoid cell line JY were obtained from the American Type Culture Collection (Manassas, VA, United States) and cultivated according to their specifications. […] As controls, cells were treated with the corresponding amounts of native MβCD complexes not containing sterols. To study the effects of fatty acids, cells were incubated for 48 h in medium supplemented with saturated stearic acid (SA, Sigma Aldrich), ω-3 polyunsaturated α-linolenic acid (ALA, Sigma Aldrich) or ω-6 polyunsaturated γ-linolenic acid (GLA, Sigma Aldrich) at various concentrations ranging from 12.5 to 50 μM. […] After washing, the fluorescence intensities of cells were determined with a FACS Aria III flow cytometer (Becton Dickinson, Mountain View, CA, United States) at 37°C. […] Data analysis was carried out in FCS Express (De Novo Software, Los Angeles, CA, United States). The ratio of emitted intensities in the two wavelength ranges (N^∗/T^∗) was determined for each cell and the average value was calculated for each sample from the data of living cells gated on FSC-SSC dot plots. The value of N^∗/T^∗ ratio negatively correlates with the magnitude of DP ([Kovacs et al., 2017]).

In series [10] the test system is THP-1 cells. The description is as above. The conditions noted are these: n = 5. On the procedure:
as §6

[11] abbreviates: fatty acid 12.5-50 μM for 48 h, result at maximal 50 μM, n = 5.
The mark [12] stands for this setting: 50 μM fatty acid 48 h, 5 μM AFDye532- and 5 μM NF-penetratin, compared at 900 s, n = 5.
[13] abbreviates: 50 μM fatty acid 48 h, then 50 or 200 μM cholesterol 1 h.
Where [14] appears, read: 5 μM AFDye532-penetratin + 5 μM NF-penetratin, flow cytometry, living cells.
Setting [15] is: 5 μM AFDye532-penetratin + 5 μM NF-penetratin, continuous presence, flow cytometry, DAPI-negative living cells.
The mark [16] stands for this setting: 5 μM of each labeled penetratin, decline followed by a continuous gradual increase.
Where [17] appears, read: sterol-MβCD complex, 60 min, room temperature, at the maximal applied concentration of 200 μM, n = 5, statistically significant.
[18] abbreviates: agent 20-200 μM, 10 min, room temperature, 0.05% Pluronic F-127, measured at 37°C, mean of 5 experiments.
Where [19] appears, read: agent 20-200 μM, 10 min, 0.05% Pluronic F-127, at least 20,000 living cells per sample.

Regarding `CCCCCCCCCCCCCCCCCC(=O)O` [SA, stearic acid], the “PY3174 generalized polarization in the cell membrane (inversely correlates with membrane hydration)” value (shortened to “PY3174 generalized polarization”) in [1] is “increased the generalized polarization, albeit to a miniscule extent”; in series [2], “increased the generalized polarization, albeit to a miniscule extent”. For the same molecule, the “Rexc, di-8-ANEPPS” value in [3] (setting [11]) and in series [4] (setting [11]) was “slightly higher” in each case. Further, the “ratio of NF and AFDye532 intensities (endo-lysosomal escape of penetratin) vs controls” value in series [5] (setting [12]) and in series [6] (setting [12]) was “no significant changes” throughout. For the same molecule, the “TMA-DPH fluorescence anisotropy (inversely correlates with membrane fluidity)” value (“TMA-DPH fluorescence anisotropy” below) in series [7] and in series [8] was “did not reach statistical significance” each time. Besides, the “effect of fatty acid pretreatment on cholesterol-induced DP elevation (Rem, F66)” value in [9] (setting [13]) and in series [10] (setting [13]) was “a tendency to augment the cholesterol-induced DP changes” each time. Besides, the “Rem, F66” value in series [10] (fatty acid 12.5-50 μM for 48 h) was “opposite changes were observed in response to SA or GLA with the former not reaching the level of significance”.
For the molecule RQIKIWFQNRRMKWKK-amide [penetratin], the “duration of fast increase of NF signal (endo-lysosomal escape of penetratin), followed by slower continuous rise” value in series [5] (setting [14]) and in series [6] (setting [14]) was 180 to 240 s each time. For the same molecule, the “time of saturation of AFDye532 signal (total cellular penetratin concentration)” value in [5] (setting [15]) and in series [6] (setting [15]) was 120 to 180 s in each case. Besides, the “time course of ratio of NF and AFDye532 (fraction of penetratin in the cytosol)” value in [5] (setting [16]) and in [6] (setting [16]) was “initially declined” each time.
With `CC(C)CCC[C@@H](C)[C@H]1CC[C@H]2[C@@H]3CC=C4C[C@@H](O)CC[C@]4(C)[C@H]3CC[C@]12C` [cholesterol], the “PY3174 generalized polarization” value in series [1] and in [2] was “shifted toward the positive direction” throughout. The “Rexc, di-8-ANEPPS” value in [3] (setting [17]) and in [4] (setting [17]) was “moderately increased” in each case. The “TMA-DPH fluorescence anisotropy” value in series [7] and in series [8] was “significantly elevated” throughout.
Regarding `CC(C)CCC[C@@H](C)[C@H]1CC[C@H]2C3=CC=C4C[C@@H](O)CC[C@]4(C)[C@H]3CC[C@]12C` [7DHC, 7-dehydrocholesterol], the “PY3174 generalized polarization” value in series [1] and in series [2] was “shifted toward the positive direction” in each case. The “Rexc, di-8-ANEPPS” value in [3] (setting [17]) and in series [4] (setting [17]) was “slightly raised” each time. Moreover, the “TMA-DPH fluorescence anisotropy” value in series [7] and in [8] was “significantly elevated” each time.
As for `CC(C)CCC[C@@H](C)[C@H]1CC[C@H]2[C@@H]3CC(=O)[C@H]4C[C@@H](O)CC[C@]4(C)[C@H]3CC[C@]12C` [6KC, 3β-hydroxy-5α-cholestan-6-one], the “PY3174 generalized polarization” value in series [1] and in [2] was “shifted toward the positive direction” each time. In addition, the “Rexc, di-8-ANEPPS (excitation ratio 410-440 nm / 490-520 nm, positively correlates with DP)” value in [3] (setting [18]) and in series [4] (setting [18]) was “dose-dependently increased” each time. Further, the “Rexc, di-8-ANEPPS” value in series [3] (setting [17]) and in series [4] (setting [17]) was “robustly elevated” throughout. Moreover, the “TMA-DPH fluorescence anisotropy” value in [7] and in [8] was “did not reach statistical significance” throughout. Besides, the “Rem, F66 (emission ratio N*/T*, 470-490 nm / 564-606 nm, negatively correlates with DP)” value in series [9] (setting [19]) and in series [10] (setting [19]) was “dose-dependent decreases” throughout.
